Measured values reported in ChEMBL document CHEMBL3991601, “The target landscape of clinical kinase drugs” (Science, 2017).
The source made the active and inactive calls.

What was measured:
[1] = biological target: Serine/threonine-protein kinase PAK 6 (Homo sapiens, UniProt Q9NQU5)
Ephrin type-A receptor 7 = Ephrin type-A receptor 7 (Homo sapiens, UniProt Q15375)
[2] = biological target: Cyclin-dependent kinase 2 (Homo sapiens, UniProt P24941)
[3] = biological target: Dual specificity testis-specific protein kinase 1 (Homo sapiens, UniProt Q15569)
[4] = biological target: Epidermal growth factor receptor (Homo sapiens, UniProt P00533)
Epidermal growth factor receptor, sequence (P00533 whole entry): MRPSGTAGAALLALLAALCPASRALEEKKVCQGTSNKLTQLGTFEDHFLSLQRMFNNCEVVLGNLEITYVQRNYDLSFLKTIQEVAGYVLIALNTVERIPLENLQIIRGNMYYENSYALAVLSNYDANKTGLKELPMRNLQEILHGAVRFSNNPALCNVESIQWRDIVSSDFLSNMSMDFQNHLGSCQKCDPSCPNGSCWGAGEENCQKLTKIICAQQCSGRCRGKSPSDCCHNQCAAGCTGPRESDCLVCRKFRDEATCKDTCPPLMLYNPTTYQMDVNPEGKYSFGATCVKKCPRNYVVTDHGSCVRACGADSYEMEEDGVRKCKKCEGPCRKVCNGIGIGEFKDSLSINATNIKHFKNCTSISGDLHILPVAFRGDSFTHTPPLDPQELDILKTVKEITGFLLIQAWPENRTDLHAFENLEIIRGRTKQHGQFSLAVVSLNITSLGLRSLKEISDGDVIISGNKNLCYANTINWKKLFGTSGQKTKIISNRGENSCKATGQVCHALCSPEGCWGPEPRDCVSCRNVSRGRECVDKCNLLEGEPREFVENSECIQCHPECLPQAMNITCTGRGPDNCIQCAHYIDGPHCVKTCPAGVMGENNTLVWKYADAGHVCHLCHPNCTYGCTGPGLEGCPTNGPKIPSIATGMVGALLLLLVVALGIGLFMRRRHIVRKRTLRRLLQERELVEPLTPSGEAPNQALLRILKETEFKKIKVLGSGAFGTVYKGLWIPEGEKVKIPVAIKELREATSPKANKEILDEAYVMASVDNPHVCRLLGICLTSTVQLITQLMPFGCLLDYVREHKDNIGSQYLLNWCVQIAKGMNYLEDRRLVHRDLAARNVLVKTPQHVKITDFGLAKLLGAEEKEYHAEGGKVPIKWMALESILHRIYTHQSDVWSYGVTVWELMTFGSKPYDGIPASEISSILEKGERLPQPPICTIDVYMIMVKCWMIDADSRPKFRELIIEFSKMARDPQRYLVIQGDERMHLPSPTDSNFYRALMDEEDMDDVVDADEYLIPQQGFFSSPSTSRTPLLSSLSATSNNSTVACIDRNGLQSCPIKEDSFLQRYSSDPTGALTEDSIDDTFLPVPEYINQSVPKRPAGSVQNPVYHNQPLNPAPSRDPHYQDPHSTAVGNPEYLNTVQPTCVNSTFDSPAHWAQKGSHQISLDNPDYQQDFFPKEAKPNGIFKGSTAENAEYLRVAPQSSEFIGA

[5] = biological target: Membrane-associated progesterone receptor component 1 (Homo sapiens, UniProt O00264)
Membrane-associated progesterone receptor component 1, sequence (O00264 whole entry): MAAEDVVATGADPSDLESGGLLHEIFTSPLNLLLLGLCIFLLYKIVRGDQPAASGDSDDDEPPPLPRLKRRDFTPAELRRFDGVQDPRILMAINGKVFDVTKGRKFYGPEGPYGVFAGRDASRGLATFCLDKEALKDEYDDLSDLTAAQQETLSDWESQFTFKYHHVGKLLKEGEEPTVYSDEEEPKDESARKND

[6] = biological target: Cell division cycle 7-related protein kinase (Homo sapiens, UniProt O00311)
Cell division cycle 7-related protein kinase, sequence (O00311 whole entry): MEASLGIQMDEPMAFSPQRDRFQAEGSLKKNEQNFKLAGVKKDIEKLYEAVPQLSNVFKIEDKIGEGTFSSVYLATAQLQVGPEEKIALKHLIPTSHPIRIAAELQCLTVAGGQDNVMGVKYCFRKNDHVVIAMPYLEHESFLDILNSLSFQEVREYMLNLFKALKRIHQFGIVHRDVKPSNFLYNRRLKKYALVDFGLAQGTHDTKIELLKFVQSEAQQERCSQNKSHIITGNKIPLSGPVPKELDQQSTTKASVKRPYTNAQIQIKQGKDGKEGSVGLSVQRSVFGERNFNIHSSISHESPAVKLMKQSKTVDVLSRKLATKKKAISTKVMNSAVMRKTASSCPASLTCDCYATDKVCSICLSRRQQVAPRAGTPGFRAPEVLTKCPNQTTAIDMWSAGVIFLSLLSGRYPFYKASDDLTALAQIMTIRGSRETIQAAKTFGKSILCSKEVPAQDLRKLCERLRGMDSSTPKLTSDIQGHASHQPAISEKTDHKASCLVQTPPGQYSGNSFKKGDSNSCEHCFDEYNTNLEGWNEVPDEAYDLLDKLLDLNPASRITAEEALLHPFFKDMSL

[7] = biological target: Protein kinase C theta type (Homo sapiens, UniProt Q04759)
Protein kinase C theta type, sequence (Q04759 whole entry): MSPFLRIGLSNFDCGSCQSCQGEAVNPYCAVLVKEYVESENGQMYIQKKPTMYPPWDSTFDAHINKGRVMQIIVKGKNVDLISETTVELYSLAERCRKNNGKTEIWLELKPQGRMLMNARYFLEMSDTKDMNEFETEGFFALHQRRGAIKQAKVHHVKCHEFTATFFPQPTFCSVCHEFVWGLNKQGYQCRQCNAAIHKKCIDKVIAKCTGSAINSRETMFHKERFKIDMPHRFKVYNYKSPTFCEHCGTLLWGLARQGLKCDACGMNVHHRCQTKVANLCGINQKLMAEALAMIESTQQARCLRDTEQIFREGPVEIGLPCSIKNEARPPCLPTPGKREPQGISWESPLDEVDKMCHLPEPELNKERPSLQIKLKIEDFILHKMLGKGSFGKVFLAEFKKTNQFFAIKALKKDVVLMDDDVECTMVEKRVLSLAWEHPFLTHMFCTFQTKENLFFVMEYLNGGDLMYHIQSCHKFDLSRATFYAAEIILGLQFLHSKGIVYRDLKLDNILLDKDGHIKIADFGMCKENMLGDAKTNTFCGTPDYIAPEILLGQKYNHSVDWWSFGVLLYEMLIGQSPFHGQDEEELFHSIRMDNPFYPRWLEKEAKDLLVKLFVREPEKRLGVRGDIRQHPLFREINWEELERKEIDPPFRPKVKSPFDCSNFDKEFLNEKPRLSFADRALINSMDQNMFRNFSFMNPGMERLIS

[8] = biological target: T1, Eukaryotic translation initiation factor 5B (Homo sapiens, UniProt O60841)
T1 sequence (O60841 whole entry): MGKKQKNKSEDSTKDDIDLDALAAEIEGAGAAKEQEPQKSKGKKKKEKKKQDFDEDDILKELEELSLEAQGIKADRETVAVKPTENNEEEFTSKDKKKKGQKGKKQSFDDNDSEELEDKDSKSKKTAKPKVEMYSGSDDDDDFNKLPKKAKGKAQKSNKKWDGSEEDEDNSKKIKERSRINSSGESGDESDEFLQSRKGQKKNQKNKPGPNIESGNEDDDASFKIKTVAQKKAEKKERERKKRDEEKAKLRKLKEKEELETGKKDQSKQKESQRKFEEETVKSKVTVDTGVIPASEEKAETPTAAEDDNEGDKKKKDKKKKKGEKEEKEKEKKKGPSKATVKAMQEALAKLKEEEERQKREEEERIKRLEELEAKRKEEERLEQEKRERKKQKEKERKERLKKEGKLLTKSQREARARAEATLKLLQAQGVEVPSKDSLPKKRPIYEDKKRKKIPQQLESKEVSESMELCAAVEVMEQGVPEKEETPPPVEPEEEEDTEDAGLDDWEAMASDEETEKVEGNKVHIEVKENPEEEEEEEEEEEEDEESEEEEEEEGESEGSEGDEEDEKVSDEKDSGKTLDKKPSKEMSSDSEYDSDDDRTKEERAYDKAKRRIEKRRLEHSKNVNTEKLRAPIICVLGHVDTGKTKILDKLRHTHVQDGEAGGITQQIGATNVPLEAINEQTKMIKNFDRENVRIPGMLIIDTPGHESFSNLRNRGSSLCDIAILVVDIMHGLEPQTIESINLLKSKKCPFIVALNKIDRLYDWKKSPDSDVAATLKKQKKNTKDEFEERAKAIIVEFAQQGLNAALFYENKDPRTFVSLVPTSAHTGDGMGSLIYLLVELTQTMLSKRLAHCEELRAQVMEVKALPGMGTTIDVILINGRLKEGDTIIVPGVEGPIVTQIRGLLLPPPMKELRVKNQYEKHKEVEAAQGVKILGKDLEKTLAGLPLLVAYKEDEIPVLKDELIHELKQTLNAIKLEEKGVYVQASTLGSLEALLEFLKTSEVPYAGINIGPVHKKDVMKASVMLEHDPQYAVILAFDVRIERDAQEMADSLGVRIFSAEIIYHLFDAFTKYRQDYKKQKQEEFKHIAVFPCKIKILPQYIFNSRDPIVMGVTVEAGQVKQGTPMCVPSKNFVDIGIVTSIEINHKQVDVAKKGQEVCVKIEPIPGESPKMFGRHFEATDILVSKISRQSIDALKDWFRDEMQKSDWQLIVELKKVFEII

Obg-like ATPase 1 = Obg-like ATPase 1 (Homo sapiens, UniProt Q9NTK5)
Obg-like ATPase 1, sequence (Q9NTK5 whole entry, looked up): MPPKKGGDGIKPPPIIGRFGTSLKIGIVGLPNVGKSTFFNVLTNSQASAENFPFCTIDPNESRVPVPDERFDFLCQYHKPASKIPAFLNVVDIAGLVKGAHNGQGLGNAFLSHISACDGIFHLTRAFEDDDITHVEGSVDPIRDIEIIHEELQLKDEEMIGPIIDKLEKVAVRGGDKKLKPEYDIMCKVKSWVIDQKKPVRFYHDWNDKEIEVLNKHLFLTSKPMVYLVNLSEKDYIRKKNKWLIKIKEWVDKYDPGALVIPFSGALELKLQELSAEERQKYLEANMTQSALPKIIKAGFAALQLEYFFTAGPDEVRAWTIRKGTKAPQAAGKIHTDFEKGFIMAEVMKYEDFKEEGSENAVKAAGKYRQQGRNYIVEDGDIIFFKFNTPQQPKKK

[9] = biological target: Serine/threonine-protein kinase ATR (Homo sapiens, UniProt Q13535)
[10] = biological target: Dual specificity protein kinase CLK2 (Homo sapiens, UniProt P49760)
Dual specificity protein kinase CLK2, sequence (P49760 whole entry, the tested form may be a part): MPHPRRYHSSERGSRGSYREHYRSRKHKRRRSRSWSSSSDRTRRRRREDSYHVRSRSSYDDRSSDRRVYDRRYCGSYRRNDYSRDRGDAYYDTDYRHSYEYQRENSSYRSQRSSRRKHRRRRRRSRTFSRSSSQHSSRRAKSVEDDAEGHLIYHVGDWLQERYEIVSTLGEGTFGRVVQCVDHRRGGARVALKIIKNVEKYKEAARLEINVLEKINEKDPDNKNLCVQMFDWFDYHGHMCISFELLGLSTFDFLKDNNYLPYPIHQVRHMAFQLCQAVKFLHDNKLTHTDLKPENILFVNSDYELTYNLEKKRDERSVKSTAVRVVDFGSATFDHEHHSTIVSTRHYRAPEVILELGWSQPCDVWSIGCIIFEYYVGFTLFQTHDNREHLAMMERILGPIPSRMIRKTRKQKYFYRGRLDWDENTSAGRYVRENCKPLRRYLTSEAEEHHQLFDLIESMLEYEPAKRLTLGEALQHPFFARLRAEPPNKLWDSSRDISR

[11] = biological target: Uncharacterized aarF domain-containing protein kinase 5 (Homo sapiens, UniProt Q3MIX3)
[12] = biological target: PAS domain-containing serine/threonine-protein kinase (Homo sapiens, UniProt Q96RG2)
[13] = biological target: Choline-phosphate cytidylyltransferase A (Homo sapiens, UniProt P49585)
Choline-phosphate cytidylyltransferase A, sequence (P49585 whole entry): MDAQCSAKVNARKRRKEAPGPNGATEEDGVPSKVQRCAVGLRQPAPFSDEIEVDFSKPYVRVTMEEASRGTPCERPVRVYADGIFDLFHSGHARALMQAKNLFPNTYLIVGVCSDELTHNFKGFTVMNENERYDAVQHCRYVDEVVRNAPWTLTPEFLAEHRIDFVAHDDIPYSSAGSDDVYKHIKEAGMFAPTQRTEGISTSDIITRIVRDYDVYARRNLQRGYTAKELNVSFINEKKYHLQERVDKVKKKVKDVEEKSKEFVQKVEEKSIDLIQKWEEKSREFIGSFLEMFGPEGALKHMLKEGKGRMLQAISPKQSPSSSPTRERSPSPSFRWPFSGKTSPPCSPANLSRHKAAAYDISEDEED

[14] = biological target: Dual specificity protein kinase CLK3 (Homo sapiens, UniProt P49761); format: subcellular, K-562, COLO 205, SK-N-BE(2) and MV-4-11, Cell lysate; conditions: read-out: Kd apparent
Also: in the data inactive means no Kd found up to 30 µM.

Ephrin type-A receptor 7, sequence (Q15375 whole entry): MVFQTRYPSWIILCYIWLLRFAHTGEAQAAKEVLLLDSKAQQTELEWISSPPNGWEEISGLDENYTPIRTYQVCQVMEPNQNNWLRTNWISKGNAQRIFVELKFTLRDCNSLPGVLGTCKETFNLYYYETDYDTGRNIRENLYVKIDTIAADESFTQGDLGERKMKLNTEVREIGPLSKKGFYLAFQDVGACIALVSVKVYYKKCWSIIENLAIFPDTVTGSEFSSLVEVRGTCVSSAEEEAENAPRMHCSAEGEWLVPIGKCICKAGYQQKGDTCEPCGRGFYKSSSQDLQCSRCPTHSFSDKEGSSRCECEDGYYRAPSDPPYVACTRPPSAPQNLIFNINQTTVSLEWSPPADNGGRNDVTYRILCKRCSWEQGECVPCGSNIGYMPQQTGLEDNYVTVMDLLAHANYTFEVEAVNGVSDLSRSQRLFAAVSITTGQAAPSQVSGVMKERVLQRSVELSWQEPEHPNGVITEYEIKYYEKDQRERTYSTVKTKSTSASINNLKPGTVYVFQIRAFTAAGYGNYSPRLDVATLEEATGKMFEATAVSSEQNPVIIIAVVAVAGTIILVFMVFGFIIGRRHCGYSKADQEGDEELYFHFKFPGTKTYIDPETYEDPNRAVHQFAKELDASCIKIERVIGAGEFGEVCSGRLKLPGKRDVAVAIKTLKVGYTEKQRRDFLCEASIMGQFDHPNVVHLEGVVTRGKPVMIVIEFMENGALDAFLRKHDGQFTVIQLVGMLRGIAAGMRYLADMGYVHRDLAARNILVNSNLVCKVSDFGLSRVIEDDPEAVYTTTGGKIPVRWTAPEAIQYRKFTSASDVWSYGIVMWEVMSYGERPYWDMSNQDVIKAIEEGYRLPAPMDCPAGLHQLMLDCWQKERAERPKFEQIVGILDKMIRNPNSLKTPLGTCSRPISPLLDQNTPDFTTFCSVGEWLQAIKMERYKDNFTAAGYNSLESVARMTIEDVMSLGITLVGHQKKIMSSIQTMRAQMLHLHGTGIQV

SMILES	Kd [1]	Kd (Ephrin type-A receptor 7)	Kd [2]	Kd [3]	Kd [4]	Kd [5]	Kd [6]	Kd [7]	Kd [8]	Kd (Obg-like ATPase 1)	Kd [9]	Kd [10]	Kd [11]	Kd [12]	Kd [13]	Kd [14]
Cn1ncc(Cl)c1-c1cc(C(=O)N[C@H](CN)Cc2cccc(F)c2)sc1Cl [AFURESERTIB]	> 30 µM (inactive)	> 30 µM (inactive)	> 30 µM (inactive)	> 30 µM (inactive)	> 30 µM (inactive)	> 30 µM (inactive)	> 30 µM (inactive)	> 30 µM (inactive)	> 30 µM (inactive)	–	–	–	–	–	–	–
CC[C@H](Nc1ncnc2[nH]cnc12)c1nc2cccc(F)c2c(=O)n1-c1ccccc1 [IDELALISIB]	> 30 µM (inactive)	> 30 µM (inactive)	> 30 µM (inactive)	> 30 µM (inactive)	> 30 µM (inactive)	> 30 µM (inactive)	–	> 30 µM (inactive)	> 30 µM (inactive)	–	> 30 µM (inactive)	> 30 µM (inactive)	> 30 µM (inactive)	> 30 µM (inactive)	–	–
Cc1cn(-c2cc(NC(=O)c3ccc(C)c(Nc4nccc(-c5cccnc5)n4)c3)cc(C(F)(F)F)c2)cn1 [NILOTINIB]	–	–	–	–	–	> 30 µM (inactive)	> 30 µM (inactive)	–	> 30 µM (inactive)	> 30 µM (inactive)	–	–	–	> 30 µM (inactive)	–	–
C[C@@H](Nc1cc(F)cc(F)c1)c1cc(C(=O)N(C)C)cc2c(=O)cc(N3CCOCC3)oc12 [AZD-8186]	> 30 µM (inactive)	> 30 µM (inactive)	> 30 µM (inactive)	> 30 µM (inactive)	> 30 µM (inactive)	–	> 30 µM (inactive)	–	–	–	> 30 µM (inactive)	–	–	–	–	–
CCc1cnn2c(NCc3ccc[n+]([O-])c3)cc(N3CCCC[C@H]3CCO)nc12 [DINACICLIB]	> 30 µM (inactive)	> 30 µM (inactive)	–	> 30 µM (inactive)	> 30 µM (inactive)	> 30 µM (inactive)	–	–	> 30 µM (inactive)	> 30 µM (inactive)	> 30 µM (inactive)	–	> 30 µM (inactive)	> 30 µM (inactive)	> 30 µM (inactive)	–
O=C(Nc1cccc(Cl)c1)Nc1ncc(CCNc2ncnc3ccsc23)s1 [SNS-314]	–	> 30 µM (inactive)	–	–	–	> 30 µM (inactive)	–	–	> 30 µM (inactive)	> 30 µM (inactive)	–	–	> 30 µM (inactive)	–	–	> 30 µM (inactive)
C1=C/COCc2cc(ccc2OCCN2CCCC2)Nc2nccc(n2)-c2cccc(c2)COC/1 [PACRITINIB]	–	> 30 µM (inactive)	> 30 µM (inactive)	–	> 30 µM (inactive)	–	–	–	> 30 µM (inactive)	> 30 µM (inactive)	–	–	–	> 30 µM (inactive)	–	–
CNC(=O)c1ccc(-c2cnc3ncc(Cc4ccc5ncccc5c4)n3n2)cc1F [CAPMATINIB]	> 30 µM (inactive)	> 30 µM (inactive)	> 30 µM (inactive)	> 30 µM (inactive)	> 30 µM (inactive)	–	> 30 µM (inactive)	> 30 µM (inactive)	–	> 30 µM (inactive)	> 30 µM (inactive)	–	> 30 µM (inactive)	–	–	–
CN1CCN(c2ccc3nc(-c4c(N)c5c(F)cccc5[nH]c4=O)[nH]c3c2)CC1 [DOVITINIB]	–	–	–	–	–	> 30 µM (inactive)	–	–	–	> 30 µM (inactive)	–	–	> 30 µM (inactive)	> 30 µM (inactive)	> 30 µM (inactive)	–
N[C@@H]1CCCN(c2c(/C=C3\SC(=O)NC3=O)cccc2-c2ccccc2)C1	–	> 30 µM (inactive)	> 30 µM (inactive)	–	> 30 µM (inactive)	> 30 µM (inactive)	–	–	> 30 µM (inactive)	> 30 µM (inactive)	–	> 30 µM (inactive)	> 30 µM (inactive)	–	> 30 µM (inactive)	–
O=C(c1ccc(F)c(F)c1Nc1ccc(I)cc1F)N1CC(O)([C@@H]2CCCCN2)C1 [COBIMETINIB]	> 30 µM (inactive)	> 30 µM (inactive)	> 30 µM (inactive)	> 30 µM (inactive)	> 30 µM (inactive)	> 30 µM (inactive)	–	> 30 µM (inactive)	> 30 µM (inactive)	–	> 30 µM (inactive)	> 30 µM (inactive)	–	–	> 30 µM (inactive)	–
Cn1cc(-c2ccc(F)c(C(F)(F)F)c2)nc1C1CCN(c2ncnc3[nH]ncc23)CC1 [LY-2584702]	–	> 30 µM (inactive)	> 30 µM (inactive)	> 30 µM (inactive)	> 30 µM (inactive)	> 30 µM (inactive)	–	> 30 µM (inactive)	> 30 µM (inactive)	> 30 µM (inactive)	–	–	–	–	–	–
CCn1c(-c2nonc2N)nc2c(C#CC(C)(C)O)ncc(OC[C@H]3CCCNC3)c21 [GSK-690693]	–	–	–	–	–	> 30 µM (inactive)	–	–	–	> 30 µM (inactive)	–	–	–	1.07 µM	–	–

More lines, main results first:

Kd [1]	Kd (Ephrin type-A receptor 7)	Kd [2]	Kd [3]	Kd [4]	Kd [5]	Kd [6]	Kd [7]	Kd [8]	Kd (Obg-like ATPase 1)	Kd [9]	Kd [10]	Kd [11]	Kd [12]	Kd [13]	SMILES	Kd [14]
–	–	> 30 µM (inactive)	–	–	> 30 µM (inactive)	–	> 30 µM (inactive)	–	> 30 µM (inactive)	> 30 µM (inactive)	> 30 µM (inactive)	> 30 µM (inactive)	–	–	CCCS(=O)(=O)Nc1ccc(F)c(C(=O)c2c[nH]c3ncc(-c4ccc(Cl)cc4)cc23)c1F [VEMURAFENIB]	–
–	–	> 30 µM (inactive)	–	> 30 µM (inactive)	> 30 µM (inactive)	> 30 µM (inactive)	> 30 µM (inactive)	> 30 µM (inactive)	> 30 µM (inactive)	–	–	–	–	> 30 µM (inactive)	CN1N=C(N)c2cn([C@@H]3O[C@H](COP(=O)(O)O)[C@@H](O)[C@H]3O)c3ncnc1c23 [TRICIRIBINE PHOSPHATE]	–
> 30 µM (inactive)	–	> 30 µM (inactive)	> 30 µM (inactive)	> 30 µM (inactive)	> 30 µM (inactive)	> 30 µM (inactive)	> 30 µM (inactive)	–	–	–	–	> 30 µM (inactive)	> 30 µM (inactive)	–	CC(C)Nc1cc(-c2c[nH]c(C(=O)N[C@H](CO)c3cccc(Cl)c3)c2)c(Cl)cn1 [ULIXERTINIB]	–
> 30 µM (inactive)	–	> 30 µM (inactive)	> 30 µM (inactive)	> 30 µM (inactive)	> 30 µM (inactive)	–	–	> 30 µM (inactive)	–	–	> 30 µM (inactive)	> 30 µM (inactive)	> 30 µM (inactive)	–	CNC(=O)c1ccc(C)c(-n2c(C)cc(OCc3ccc(F)cc3F)c(Br)c2=O)c1 [PH-797804]	–
–	–	–	–	> 30 µM (inactive)	–	–	–	> 30 µM (inactive)	> 30 µM (inactive)	> 30 µM (inactive)	–	–	–	–	Nc1nc(N)c2nc(-c3cccc(O)c3)c(-c3cccc(O)c3)nc2n1 [TG100-115]	–
> 30 µM (inactive)	–	> 30 µM (inactive)	> 30 µM (inactive)	–	> 30 µM (inactive)	–	> 30 µM (inactive)	> 30 µM (inactive)	> 30 µM (inactive)	> 30 µM (inactive)	> 30 µM (inactive)	> 30 µM (inactive)	> 30 µM (inactive)	> 30 µM (inactive)	COc1cc2nccc(Oc3ccc(NC(=O)Nc4cc(C)on4)c(Cl)c3)c2cc1OC [TIVOZANIB]	–
–	–	> 30 µM (inactive)	> 30 µM (inactive)	> 30 µM (inactive)	> 30 µM (inactive)	–	–	> 30 µM (inactive)	–	> 30 µM (inactive)	> 30 µM (inactive)	–	–	–	C[C@@H](c1ccc2nccn2c1)n1nnc2ncc(-c3cnn(C)c3)nc21 [SAVOLITINIB]	–
–	–	> 30 µM (inactive)	> 30 µM (inactive)	> 30 µM (inactive)	> 30 µM (inactive)	> 30 µM (inactive)	> 30 µM (inactive)	> 30 µM (inactive)	> 30 µM (inactive)	–	–	–	–	–	CCn1c(=O)c(-c2cc[nH]n2)cc2c(C)nc(N)nc21 [VOXTALISIB]	–
